Key:
mesangial cells = experiment: Proliferation assay of TGF-β stimulated mesangial cells; format: cell-based; conditions: 4 h pre-incubation, 10 ng mL^−1 TGF-β 48 h
Experimental: (§1) Finally, the anti-fibrotic and anti-proliferative potential of a NP-assisted CCG delivery was analyzed. In that regard, mesangial cells were initially incubated for 4 h either with free CCG, CCG-loaded EXPcRGD NPs or control NPs without encapsulated drug. After 4 h, 10 ng mL^−1 of transforming growth factor β (TGF-β) were added for 48 h to induce a fibrotic and hyperproliferative remodeling.

PGK1-α = experiment: Western Blot of VASP phosphorylation (PGK1-α activity); format: cell-based; conditions: free CCG 2 μM, NPs 0.2 μM CCG
Experimental: To assess PGK1-αactivity, phosphorylation of its substrate vasodilator-stimulated phosphoprotein (VASP) was assessed. […] (n=3; ****P<0.0001; ***P<0.001; **P<0.01; *P<0.05).
(§2) In the inventors' experimental set-up, CCG was initially encapsulated in hetero-multivalent EXPcRGD NPs. Resulting NPs carried approximately 500-700 CCG molecules per NP (data not shown). In all following experiments, the administration of free cinaciguat at a concentration of 2 μM was compared to CCG-loaded EXPcRGD NPs at a concentration of approximately 0.5 nM (equaling 0.2 μM of CCG) and drug-free EXPcRGD control NPs (FIG. 30). […] CCG-carrying NPs however carried only 10% of respective CCG amount to test a possible drug delivery effect.

Collagen I = experiment: Western Blot of fibrosis marker Collagen I after TGF-β; format: cell-based; conditions: 4 h pre-incubation, 10 ng mL^−1 TGF-β 48 h
Experimental: as §1

sGC = target: T1, sGC (Rattus norvegicus, UniProt P20595); experiment: Western Blot of sGC levels in mesangial cells; format: cell-based; conditions: 24 h incubation; free CCG 2 μM, NPs 0.2 μM CCG
T1 construct: endogenous in cells; host or cells: mesangial cells
T1 sequence (P20595 1-619): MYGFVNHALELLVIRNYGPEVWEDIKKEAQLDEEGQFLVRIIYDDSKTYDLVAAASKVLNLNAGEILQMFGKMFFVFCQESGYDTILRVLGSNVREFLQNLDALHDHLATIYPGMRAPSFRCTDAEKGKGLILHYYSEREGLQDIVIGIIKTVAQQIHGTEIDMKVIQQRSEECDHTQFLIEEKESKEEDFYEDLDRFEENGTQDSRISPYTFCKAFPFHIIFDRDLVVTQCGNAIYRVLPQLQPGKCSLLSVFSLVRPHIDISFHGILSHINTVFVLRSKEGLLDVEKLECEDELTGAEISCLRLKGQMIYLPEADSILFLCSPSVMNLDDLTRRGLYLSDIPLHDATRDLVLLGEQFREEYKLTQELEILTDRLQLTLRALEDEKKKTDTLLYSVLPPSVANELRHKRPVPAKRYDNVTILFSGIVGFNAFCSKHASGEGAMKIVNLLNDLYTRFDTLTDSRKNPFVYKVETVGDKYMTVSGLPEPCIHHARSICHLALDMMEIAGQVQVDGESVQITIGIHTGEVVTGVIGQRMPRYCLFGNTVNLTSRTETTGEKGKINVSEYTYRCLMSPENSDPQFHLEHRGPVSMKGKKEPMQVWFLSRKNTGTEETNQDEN
T1 sequence (P19686 1-690 partner): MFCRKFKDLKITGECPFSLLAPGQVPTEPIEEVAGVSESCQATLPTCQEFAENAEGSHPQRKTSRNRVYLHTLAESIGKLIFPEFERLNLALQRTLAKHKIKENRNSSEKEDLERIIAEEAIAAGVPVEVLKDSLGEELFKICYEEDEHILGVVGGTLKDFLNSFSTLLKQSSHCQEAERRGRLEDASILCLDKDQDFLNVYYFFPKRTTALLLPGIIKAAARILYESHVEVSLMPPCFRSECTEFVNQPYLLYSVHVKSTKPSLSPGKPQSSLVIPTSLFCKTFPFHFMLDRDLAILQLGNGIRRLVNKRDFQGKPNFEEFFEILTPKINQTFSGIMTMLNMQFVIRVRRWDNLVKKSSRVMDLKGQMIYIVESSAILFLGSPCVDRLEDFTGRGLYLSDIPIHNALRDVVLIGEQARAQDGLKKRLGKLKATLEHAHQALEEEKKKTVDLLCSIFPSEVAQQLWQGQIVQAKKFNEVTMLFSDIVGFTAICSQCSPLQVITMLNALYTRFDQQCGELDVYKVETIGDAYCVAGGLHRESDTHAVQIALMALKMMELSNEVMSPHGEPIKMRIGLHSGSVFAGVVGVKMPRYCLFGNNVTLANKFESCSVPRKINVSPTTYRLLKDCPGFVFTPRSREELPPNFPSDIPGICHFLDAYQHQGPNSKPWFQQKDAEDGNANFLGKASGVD
Experimental: as §2
To assess the effect of CCG-loaded EXPcRGD NPs on target sGC, mesangial cells were initially incubated for 24 h and protein quantity was assessed using Western Blot analysis.

α-SMA = experiment: Western Blot / LSM of fibrosis marker α-SMA after TGF-β; format: cell-based; conditions: 4 h pre-incubation, 10 ng mL^−1 TGF-β 48 h
Experimental: as §1

AT1R = target: T2, AT1R (Rattus norvegicus, UniProt P25095); experiment: Intracellular calcium measurement (Fura-2): ligand affinity and particle avidity for the AT1R; conditions: read-out: IC50, ligand affinity for the AT1R; free ligand; rMCs incubated 30 min prior to stimulation with Ang-II
T2 sequence (P25095 1-359): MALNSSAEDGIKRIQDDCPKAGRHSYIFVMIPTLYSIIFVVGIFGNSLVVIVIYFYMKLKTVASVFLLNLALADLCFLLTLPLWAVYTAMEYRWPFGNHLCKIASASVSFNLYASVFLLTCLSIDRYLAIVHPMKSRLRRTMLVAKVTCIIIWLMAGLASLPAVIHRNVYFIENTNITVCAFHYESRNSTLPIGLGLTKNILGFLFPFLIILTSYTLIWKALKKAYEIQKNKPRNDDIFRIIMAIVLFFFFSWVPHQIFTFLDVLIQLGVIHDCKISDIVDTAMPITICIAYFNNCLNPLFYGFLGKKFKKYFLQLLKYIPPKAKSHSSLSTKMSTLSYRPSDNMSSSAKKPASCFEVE
Experimental: In order to assess the AT1R interaction of the different NP formulations a ratiometric Fura-2 Ca^2+ chelator method was used as previously described [1, 3] using AT1R positive rMCs. For that purpose, rMCs were seeded in T-150 flasks (Corning) and incubated until confluent. […] Cells were incubated for 1 hour, light protected, with gentle agitation (50 rpm). Afterwards, the cell suspension was washed with DPBS by centrifugation (2×, 200 g, 5 min, RT), and resuspended in Leibovitz medium supplemented with 2.5 mM Probenecid at a count of 2 million cells/mL. […] To determine the kinetics of the AT1R interaction (FIG. 3D) the same procedure was used, but the samples were incubated for different time periods (from 5 to 320min) with the cells. The maximal and minimal signal ratio, was determined by stimulating the cells with 0.1% Triton-X 100 or 0.1% Triton-X 100 with 45 mM ethylene glycol-bis(2-aminoethylether)-N,N,N′,N′-tetraacetic acid (EGTA), respectively.

Row | sGC levels (sGC) | IC50 (AT1R) [nM] | Molecule | Effect on TGF-β induced hyperproliferation (mesangial cells) | P-VASP/VASP ratio (PGK1-α) | Collagen I levels compared to the TGF-β control (Collagen I) | α-SMA levels compared to the TGF-β control (α-SMA)
1 | substantial increase in sGC levels |  | O=C(O)CCCCN(CCc1ccccc1OCc1ccc(CCc2ccccc2)cc1)Cc1ccc(C(=O)O)cc1 [CCG, Cinaciguat] | considerably decreased this effect | considerable increase in P-VASP/VASP ratio | drastic reduction | drastic reduction
2 |  | 900 ± 600 | angiotensin-I (DRVYIHPFHL; Angiotensin-1; UniProt P01019 25-34, looked up) [Ang-I] |  |  |  | 

From patent publication US20220409743A1, “VIRUS-MIMETIC NANOPARTICLES” (UNIVERSITÄT REGENSBURG, priority 2019, published 2022)
